Assay results: patent publication US20210045385A1, “PYRIDAZINONE-SUBSTITUTED KETOXIMES AS HERBICIDES” (FMC Corporation, priority 2018, published 2021)

How the values were obtained:
Assay type in all cases: in vivo
[1] = tested on: barnyardgrass (Echinochloa crus-galli); experiment: Test C preemergence, visual plant response rating
Method in brief: (§1)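 Compounds in a non-phytotoxic solvent with surfactant were applied as a directed soil spray preemergence or to 2–10 cm, one- to two-leaf plants postemergence, in loam–sand soil. After about 10 d in a greenhouse, injury was visually rated against untreated controls on a 0–100 scale (100 = complete control).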

[2] = tested on: pigweed (Amaranthus retroflexus); experiment: Test C preemergence, visual plant response rating
Method in brief: as §1

kochia (Bassia scoparia) [3] = experiment: Test C preemergence, visual plant response rating
Method in brief: as §1

[4] = tested on: foxtail, giant (giant foxtail, Setaria faberi); experiment: Test C preemergence, visual plant response rating
Method in brief: as §1

[5] = tested on: ragweed (common ragweed, Ambrosia artemisiifolia); experiment: Test C preemergence, visual plant response rating; details: Test C, 0 is no effect, 100 is complete control
Method in brief: as §1

[6] = tested on: Italian ryegrass (Lolium mutiflorum); experiment: Test C preemergence, visual plant response rating
Method in brief: as §1

[7] = tested on: barnyardgrass (Echinochloa crus-galli); experiment: Test C postemergence, visual plant response rating
Method in brief: as §1

[8] = tested on: wheat (Triticum aestivum); experiment: Test C postemergence, visual plant response rating
Method in brief: as §1

[9] = tested on: pigweed (Amaranthus retroflexus); experiment: Test C postemergence, visual plant response rating
Method in brief: as §1

kochia (Bassia scoparia) [10] = experiment: Test C postemergence, visual plant response rating
Method in brief: as §1

corn (Zea mays) = experiment: Test C postemergence, visual plant response rating
Method in brief: as §1

[11] = tested on: foxtail, giant (giant foxtail, Setaria faberi); experiment: Test C postemergence, visual plant response rating
Method in brief: as §1

[12] = tested on: ragweed (common ragweed, Ambrosia artemisiifolia); experiment: Test C postemergence, visual plant response rating
Method in brief: as §1

[13] = tested on: blackgrass (Alopecurus myosuroides); experiment: Test C postemergence, visual plant response rating
Method in brief: as §1

[14] = tested on: galium (catchweed bedstraw, Galium aparine); experiment: Test C postemergence, visual plant response rating
Method in brief: as §1

[15] = tested on: Italian ryegrass (Lolium mutiflorum); experiment: Test C postemergence, visual plant response rating
Method in brief: as §1

[16] = tested on: barnyardgrass (Echinochloa crus-galli); experiment: Test D flooded paddy test, visual plant response rating; details: 250 g ai/ha, scale 0 to 100 (0 no effect, 100 complete control), 13 to 15 d
Method in brief: (§2)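 2-leaf plants, flooded 3 cm, cpd into paddy water; greenhouse 13–15 d; visual rating vs controls, 0 = no effect, 100 = complete control; dash = no result.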

[17] = tested on: sedge umbrella (small-flower umbrella sedge, Cyperus difformis); experiment: as above; details: 250 g ai/ha, scale 0 to 100 (0 no effect, 100 complete control), 13 to 15 d
Method in brief: as §2

[18] = tested on: duck salad (Heteranthera limosa); experiment: as above; details: 250 g ai/ha, scale 0 to 100 (0 no effect, 100 complete control), 13 to 15 d
Method in brief: as §2

rice (Oryza sativa) = experiment: as above; details: 250 g ai/ha, scale 0 to 100 (0 no effect, 100 complete control), 13 to 15 d
Method in brief: as §2

[19] = Test C, 31 g ai/ha, 0 is no effect, 100 is complete control
[20] = Test C, 125 g ai/ha, 0 is no effect, 100 is complete control
[21] = Test C, postemergence, 125 g ai/ha

SMILES	Barnyardgrass plant response rating (0 to 100 scale) [1, 19]	Pigweed plant response rating (0 to 100 scale) [2, 19]	Kochia plant response rating (0 to 100 scale) (kochia (Bassia scoparia) [3]; [19])	Foxtail, Giant plant response rating (0 to 100 scale) [4, 19]	Ryegrass, Italian plant response rating (0 to 100 scale) [6, 19]	Barnyardgrass plant response rating (0 to 100 scale) ([7]; Postemergence, 31 g ai/ha)	Barnyardgrass plant response rating (0 to 100 scale) [7, 21]	Wheat plant response rating (0 to 100 scale) ([8]; Postemergence, 31 g ai/ha)	Wheat plant response rating (0 to 100 scale) [8, 21]	Pigweed plant response rating (0 to 100 scale) ([9]; Postemergence, 31 g ai/ha)	Pigweed plant response rating (0 to 100 scale) [9, 21]	Kochia plant response rating (0 to 100 scale) (kochia (Bassia scoparia) [10]; Postemergence, 31 g ai/ha)	Kochia plant response rating (0 to 100 scale) (kochia (Bassia scoparia) [10]; [21])	Corn plant response rating (0 to 100 scale) (corn (Zea mays); Postemergence, 31 g ai/ha)	Corn plant response rating (0 to 100 scale) (corn (Zea mays); [21])	Foxtail, Giant plant response rating (0 to 100 scale) ([11]; Postemergence, 31 g ai/ha)	Foxtail, Giant plant response rating (0 to 100 scale) [11, 21]	Ragweed plant response rating (0 to 100 scale) ([12]; Postemergence, 31 g ai/ha)	Ragweed plant response rating (0 to 100 scale) [12, 21]	Blackgrass plant response rating (0 to 100 scale) ([13]; Postemergence, 31 g ai/ha)	also measured
CON=C(c1cc(Cl)cc(Cl)c1Cl)c1c(O)c(C)nn(C)c1=O [Compound 213]	70	100	20	60	70	80	80	40	60	80	90	60	70	20	40	70	80	70	80	30	Barnyardgrass plant response rating (0 to 100 scale) [1, 20]: 90; Pigweed plant response rating (0 to 100 scale) [2, 20]: 100; Kochia plant response rating (0 to 100 scale) (kochia (Bassia scoparia) [3]; [20]): 80; Foxtail, Giant plant response rating (0 to 100 scale) [4, 20]: 80; Ragweed plant response rating (0 to 100 scale) ([5]; 31 g ai/ha): 70; Ragweed plant response rating (0 to 100 scale) ([5]; 125 g ai/ha): 100; Ryegrass, Italian plant response rating (0 to 100 scale) [6, 20]: 100; Blackgrass plant response rating (0 to 100 scale) [13, 21]: 80; Galium plant response rating (0 to 100 scale) ([14]; Postemergence, 31 g ai/ha): 90; Galium plant response rating (0 to 100 scale) [14, 21]: 90; Ryegrass, Italian plant response rating (0 to 100 scale) ([15]; Postemergence, 31 g ai/ha): 90; Ryegrass, Italian plant response rating (0 to 100 scale) [15, 21]: 100; Plant response rating, Barnyardgrass (Flood) [16]: 70; Plant response rating, Sedge, Umbrella (Flood) [17]: 90; Plant response rating, Ducksalad (Flood) [18]: 70; Plant response rating, Rice (Flood) (rice (Oryza sativa)): 40
C#CCO/N=C(\c1cc(Cl)cc(Cl)c1Cl)c1c(O)c(C)nn(C)c1=O [Compound 187]	70	60	0	80	40	30	70	0	50	20	70	40	70	0	20	50	80	90	100	0	Barnyardgrass plant response rating (0 to 100 scale) ([1]; 125 g ai/ha): 100; Pigweed plant response rating (0 to 100 scale) ([2]; 125 g ai/ha): 90; Kochia plant response rating (0 to 100 scale) (kochia (Bassia scoparia) [3]; 125 g ai/ha): 90; Foxtail, Giant plant response rating (0 to 100 scale) ([4]; 125 g ai/ha): 100; Ryegrass, Italian plant response rating (0 to 100 scale) ([6]; 125 g ai/ha): 100; Blackgrass plant response rating (0 to 100 scale) [13, 21]: 0; Galium plant response rating (0 to 100 scale) ([14]; Postemergence, 31 g ai/ha): 80; Galium plant response rating (0 to 100 scale) [14, 21]: 100; Ryegrass, Italian plant response rating (0 to 100 scale) ([15]; Postemergence, 31 g ai/ha): 70; Ryegrass, Italian plant response rating (0 to 100 scale) [15, 21]: 100; Plant response rating, Barnyardgrass (Flood) [16]: 35; Plant response rating, Sedge, Umbrella (Flood) [17]: 60; Plant response rating, Ducksalad (Flood) [18]: 75; Plant response rating, Rice (Flood) (rice (Oryza sativa)): 15
CCO/N=C(\c1c(O)c(Cl)nn(C)c1=O)c1cc(Br)cc2ccccc12 [Compound 235]	90	100	0	30	0	60	90	0	0	50	90	50	60	0	10	40	80	100	100	20	Barnyardgrass plant response rating (0 to 100 scale) [1, 20]: 100; Pigweed plant response rating (0 to 100 scale) [2, 20]: 90; Kochia plant response rating (0 to 100 scale) (kochia (Bassia scoparia) [3]; [20]): 70; Foxtail, Giant plant response rating (0 to 100 scale) [4, 20]: 90; Ryegrass, Italian plant response rating (0 to 100 scale) [6, 20]: 0; Blackgrass plant response rating (0 to 100 scale) [13, 21]: 20; Galium plant response rating (0 to 100 scale) ([14]; Postemergence, 31 g ai/ha): 90; Galium plant response rating (0 to 100 scale) [14, 21]: 90; Ryegrass, Italian plant response rating (0 to 100 scale) ([15]; Postemergence, 31 g ai/ha): 0; Ryegrass, Italian plant response rating (0 to 100 scale) [15, 21]: 0; Plant response rating, Barnyardgrass (Flood) [16]: 60; Plant response rating, Sedge, Umbrella (Flood) [17]: 90; Plant response rating, Ducksalad (Flood) [18]: 75; Plant response rating, Rice (Flood) (rice (Oryza sativa)): 0
